# Experimental data reported in PMC7143969, “Simultaneous Determination of α-Glucosidase Inhibitory Triterpenoids in Psidium guajava Using HPLC–DAD–ELSD and Pressurized Liquid Extraction” (Molecules, 2020).
# Biological target: α-glucosidase (Saccharomyces cerevisiae, UniProt P53341)
# Assay: Inhibition assay of α-glucosidase activity (p-nitrophenyl α-D-glucopyranoside substrate, absorbance at 405 nm)
# Format: biochemical
# Conditions: Mean ± SE, phosphate buffer pH 6.8, 37 °C, 30 min, NI: No Inhibition
# Method: Methanol and formic acid (HPLC grade) were purchased from Merck (Darmstadt, Germany). The ultra-pure water was purified using a Millipore Milli Q-Plus system (Millipore, Bedford, MA, USA). The α-glucosidase and p-nitrophenyl α-D-glucopyranoside were purchased from Sigma (St. Louis, USA). The enzymatic reaction results were detected on a SpectraMax M5 (Molecular Devices, San Jose, CA, USA).
# The inhibition assay of α-glucosidase was measured by the method as described previously. Briefly, a total volume of 150 µL solution consisting of 100 µL phosphate buffer (0.1 M, pH 6.8), 20 µL α-glucosidase (2.4 unit/mg), 20 µL p-nitrophenyl α-D-glucopyranoside and 10 µL different concentration of test sample (12.5–500 µg/mL), was incubated for 30 min under the temperature of 37 °C, then the reaction was stopped by adding 80 µL 0.1 mM Na2CO3. The results were detected under the wavelength of 405 nm on a SpectraMax M5 (Molecular Devices, San Jose, CA, USA). The controlled sample used solvent instead of triterpenoids and the blank sample used buffer instead of α-glucosidase, respectively. The inhibition activity α-glucosidase was calculated by the following equation:Inhibition (%) = [1 − (As − Asb)/(Ac − Acb)] × 100%(2)
# Herein, As, Asb, Ac and Acb are absorption of the test sample, sample blank, control and control blank, respectively. Their half maximal inhibitory concentration (IC50) were calculated and compared.
# α-glucosidase, sequence (P53341 whole entry): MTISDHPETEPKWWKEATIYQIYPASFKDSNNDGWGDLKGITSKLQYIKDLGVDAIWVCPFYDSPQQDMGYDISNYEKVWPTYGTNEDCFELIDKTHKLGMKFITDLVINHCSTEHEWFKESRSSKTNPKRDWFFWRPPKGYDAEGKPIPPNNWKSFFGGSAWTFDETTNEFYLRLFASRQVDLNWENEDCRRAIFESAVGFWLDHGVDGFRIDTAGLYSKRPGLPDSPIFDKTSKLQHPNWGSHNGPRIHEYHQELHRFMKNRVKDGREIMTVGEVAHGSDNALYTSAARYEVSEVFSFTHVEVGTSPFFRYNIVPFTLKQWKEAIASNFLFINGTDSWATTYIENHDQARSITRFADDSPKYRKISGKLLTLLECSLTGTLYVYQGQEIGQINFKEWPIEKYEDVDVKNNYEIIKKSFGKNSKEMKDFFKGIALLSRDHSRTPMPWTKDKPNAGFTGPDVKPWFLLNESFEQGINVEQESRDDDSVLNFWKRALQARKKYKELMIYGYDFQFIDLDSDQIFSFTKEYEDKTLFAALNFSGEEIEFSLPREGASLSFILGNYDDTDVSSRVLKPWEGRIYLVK
row,SMILES,IC50 (n = 3) against α-Glucosidase
1,"C[C@H]1[C@H](C)CC[C@]2(C(=O)O)CC[C@]3(C)C(=CC[C@@H]4[C@@]5(C)C[C@@H](O)[C@H](OC(=O)/C=C\c6ccc(O)cc6)C(C)(C)[C@@H]5CC[C@]43C)[C@H]12 (relative stereo) [Compound 5, 3β-O-cis-p-coumaroyl-2α-hydroxy-urs-12-en-28-oic acid]",1.54 ± 0.15 µg/mL
2,"C[C@H]1[C@H](C)CC[C@]2(C(=O)O)CC[C@]3(C)C(=CCC4[C@@]5(C)C[C@@H](O)[C@H](OC(=O)/C=C/c6ccc(O)cc6)C(C)(C)C5CC[C@]43C)[C@H]12 (relative stereo) [Compound 7, 3β-O-trans-p-coumaroyl-2α-hydroxy-urs-12-en-28-oic acid]",2.12 ± 0.15 µg/mL
3,"C[C@H]1[C@H](C)CC[C@]2(C(=O)O)CC[C@]3(C)C(=CC[C@@H]4[C@@]5(C)C[C@@H](O)[C@H](O)[C@@](C)(CO)[C@@H]5CC[C@]43C)[C@H]12 [Compound 1, asiatic acid]",no inhibition activity
4,"CC1(C)CCC2(C(=O)O)CCC3(C)C(=CCC4C5(C)CC(O)C(OC(=O)C=Cc6ccc(O)cc6)C(C)(C)C5CCC43C)C2C1 (stereo not drawn) [Compound 4, 3β-O-cis-p-coumaroyl-2α-hydroxy-olean-12-en-28-oic acid]",2.25 ± 0.28 µg/mL
5,"CC1(C)CCC2(C(=O)O)CCC3(C)C(=CCC4C5(C)CC(O)C(OC(=O)C=Cc6ccc(O)cc6)C(C)(C)C5CCC43C)C2C1 (stereo not drawn) [Compound 6, 3β-O-trans-p-coumaroyl-2α-hydroxy-olean-12-en-28-oic acid]",1.93 ± 0.14 µg/mL
